“Also recorded” adds a separate entry of the source.
How the values were obtained:
REF52 fibroblast cell = test: Intracellular free Ca2+ in REF52 fibroblasts on vasopressin stimulation and UV photolysis (fluo-3); format: cell-based, Fisher rat; conditions: for effect of UV photolysis of intracellular chelator on [Ca2+]i (in words): 1 s UV after 50 nM [arg8]-vasopressin
Description: The tetraacetoxymethyl esters of diazo-2 and diazo-3 were synthesized. The acetoxymethyl (AM) groups mask the negative charges on the carboxylate functions, so the AM ester of diazo-2 and diazo-3 can easily diffuse across the cell membrane, which is largely impermeable to ions. Once inside the cell, non-specific esterases in the cell hydrolytically cleave the AM esters and restore diazo-2 and diazo-3 to their tetracarboxylate forms, which being polyanions, are trapped within the cell. […] Prior to the start of data acquisition (t=0), the REF52 fibroblast cell was loaded with diazo-2 and fluo-3. […] Its fluorescence quantum yield is enhanced about 40-fold by Ca^2+ binding, which occurs with a Kd of 400 nM.
Prior to the start of data acquisition, the REF52 fibroblast cell was loaded with fluo-3 and diazo-2 by incubation for 30 min at 25° C. DME medium containing 1 μM diazo-2/AM and 10 μM fluo-3/AM. Acquisition of fluo-3 fluorescence intensity images was begun at time 0. The fluorescence intensity data was converted to intracellular Ca^2+ concentrations using a calibration procedure previously described. The event markers correspond to 1) stimulating the cell with 50 nM [arg^8 ]-vasopressin,and 2) flashing the cell for 1 s with UV light.
The experimental conditions were the same as in (A) except that the cell wa loaded with fluo-3 and diazo-3 (instead of diazo-2) by incubation for 90 min at 25° C. in DME medium containing 10 μm fluo-3/AM and […] diazo-3/AM. The event markers correspond to 1) stimulating the cell with 50 nM [arg^8 ]-vasopressin, and 2) flashing the cell for 1 s of UV light.
For preliminary biological tests, Fisher rat embryo fibroblast of the REF52 cell line were cultured as described by J. P. Y. Kao, et al. (1989).
For testing diazo-2, REF52 cells were incubated for 30 min at 25° C. in Dulbecco's modified Eagle's medium, buffered at pH 7.4 with 20 mM HEPES and containing 1 μM diazo-2/AM and 10 μM fluo-3/AM. For control experiments using diazo-3, the cells were incubated for 90 min at 25° C. in DMEM, buffered to pH 7.4 with 20 mM HEPES and containing 1 μM diazo-3/AM and […] fluo-3/AM. After loading, the cells were gently washed, transferred into Hanks' Balanced Salt Solution containing 0.2 mM sulfinpyrazone to inhibit non-specific organic anion transport (see Tsien, 1989), and mounted on a 25° C. microscope stage for experimentation.
Flash photolysis of trapped cellular diazo-2 and the concomitant monitoring of intracellular free Ca^2+ concentration with fluo-3, a fluorescent Ca^2+ indicator, were performed using methodology and instrumentation described in A. Minta, et al (1989) and J. P. Y. Kao, et al. (1989). Briefly, output form a Xe arc lamp was passed through a monochromator to yield the 490 nm light used to probe the fluo-3 trapped intracellularly. The fluo-3 fluorescence images of cells were recorded using a SIT TV camera. Images were stored on a high-resolution monochrome laser disc recorder (Panasonic TQ-2028) for delayed processing. Photolyses were performed by briefly moving a chopper mirror to send broad-band UV from an XBO 75 W xenon arc lamp and UG-2 filter into the microscope instead of 490 nm fluo-3 excitation. The microscope objective (Nikon UV-CF, 40X) was chosen for its high UV transmission and numerical aperture (1.3). […] The same computer was used to analyze the fluorescence images acquired during the experiment.

[1] = Absorbance spectra of free and Ca2+-bound chelators; format: physicochemical
Description: The titration was done at 22° C. with 10 mL of 100 mM KCl, 10 mM K-MOPS, 10 mM K2 H.HEEDTA, and 14 […] diazo-2 as starting materials, adjusting the pH to 7.24, recording the spectrum, and then discarding 1.0 mL of this solution and replacing with 1.0 mL of 100 mM KCl, 10 mM K.MOPS, 10 mM KCa.HEEDTA, 14 μM diazo-2, readjusting the pH to 7.24, and recording the spectra, which was then in 9 mM K2H.HEEDTA. Subsequent iterations to reach n mM KCa.HEEDTA, (10-n) mM HEEDTA, n=2-10, were done by discarding 10.0/(11-n) mL and replacing with equal volumes of the 10mM KCa.HEEDTA, 14 μM diazo-2 stock. After n=10 had been reached to give free Ca^2+ between 10^-5 and 10^-4 M, addition of 1 mM CaCl2 had no further effect on the spectrum. For clarity only six spectra are including in the figure, n=0, 2, 4, 6, 8, and 10. Each spectrum is labeled with the calculated free [Ca^2+ ] imposed by the HEEDTA buffer, assuming a log effective stability constant of 5.55 at pH 7.24.
The phenylacetate was produced by irradiating a 30 μM solution of diazo-2 in 100 mM KCl, 10 mM Tris.HCl, 10 mM K2 H.HEEDTA, pH 8.40, with Spectroline lamp at 365 nm to completion. The titration was then performed as in A but the pH was maintained at 8.40, at which the calculated log effective stability is constant for HEEDTA was 6.60.
Proton magnetic resonance spectra (^1 H NMR) were recorded on a Varian EM-390 90-MHz spectrometer in CDCl3 unless otherwise noted, and the chemical shifts are given in δ values relative to tetramethylsilane. Ultraviolet (UV) absorbance spectra were recorded on a Cary 210 or a Perkin-Elmer Lambda Array 3840 spectrophotometer at 20°±2° C. Melting points are in Centigrade and are uncorrected. Elemental analyses were performed by the Microanalytical Laboratory in the Department of Chemistry, University of California, Berkeley, Calif.

[2] = Yield of high affinity chelator / low-affinity side product after photolysis; format: physicochemical; conditions: after photolysis
Description: Because of the direct conjugation of the dialkylamine moiety with the diazoketone group, diazo-2 has a large absorbance in the 350-400 nm range, which shifts 50 nm to shorter wavelengths on binding Ca^2+ (FIG. 1A). The dissociation constant for Ca^2+ is relatively high, at 2.2 μM, due to the electron withdrawing ability of the carbonyl group. Photolysis occurs at 365 nm with a quantum yield of 0.030. The peak at […] in zero Ca^2+ decreases to near baseline giving a spectrum similar to that of unsubstituted BAPTA, although a small peak remains at 355 nm (FIG. 1B). […] The reaction of diazo-2 with dilute aqueous acid should give the same product whose absorbance spectrum indeed matched that of the residual peak at 355 nm after photolysis in low Ca^2+. […] Once the extinction coefficient for the hydroxyacetyl derivative was known, the amount of the side product arising from photolysis is calculated to be about 10%.

| Compound | effect of UV photolysis of intracellular chelator on [Ca2+]i (in words) (REF52 fibroblast cell) | [Ca2+]i immediately after photolysis (REF52 fibroblast cell; after 1 s UV, cell stimulated with 50 nM [arg8]-vasopressin, loaded with diazo-2/AM) | εmax, +Ca2+ ([1]; +Ca2+, at λmax) | λmax, +Ca2+ ([1]; +Ca2+, dominant peak at longest wavelength) [nm] | εmax, free ([1]; free (zero Ca2+), at λmax) | shift of absorbance to shorter wavelengths on binding Ca2+ ([1]; on binding Ca2+) [nm] | Photolysis yield (yield of high affinity Ca2+ chelator after photolysis) [2] | λmax, free ([1]; free (zero Ca2+), dominant peak at longest wavelength) [nm] |
| --- | --- | --- | --- | --- | --- | --- | --- | --- |
| Cc1ccc(N(CC(=O)O)CC(=O)O)c(OCCOc2cc(C(=O)C=[N+]=[N-])ccc2N(CC(=O)O)CC(=O)O)c1 [diazo-2, 1-(2-bis(carboxymethyl)amino-5-methyl) phenoxy-2-(2-bis(carboxymethyl)amino-5-(diazoacetyl)phenoxy) ethane] | dropped precipitously | about 50 nM | 20.2 10^-3, M^-1 cm^-1 | 320 | 22.2 10^-3, M^-1 cm^-1 | 50 | 90 | – |
| COc1cc(C(=O)C=[N+]=[N-])ccc1N(CC(=O)O)CC(=O)O [diazo-3, 2-methoxy-4-(diazoacetyl)aniline-N, N-diacetic acid] | did not have any effect on the intracellular Ca^2+ concentration; also recorded: no detectable effect on Ca^2+ hemeostasis | – | – | – | 22.8 10^-3, M^-1 cm^-1 | – | 0 | 374 |

— patent US5141627A, “Chelators whose affinity for calcium ion is increased by illumination” (The Regents of the University of California, priority 1989, dated 1992)
